Measurements as given in patent publication US11008572B2, “Methods and compositions for modulating splicing” (SKYHAWK THERAPEUTICS, INC., priority 2017, dated 2021).

Each molecule was assayed on A-673 cells (assay: Cell viability, crystal violet staining). Conditions: Homo sapiens, A673, cell viability, read-out: A-673 IC50 (nM) Cell viability.
Assay type: cell-based
Method: To measure cell viability, cells were plated in 96-well plastic tissue culture plates at a density of 5×10^3 cells/well. Twenty-four hours after plating, cells were treated with various SMSMs. After 72 hours, the cell culture media were removed and plates were stained with […] of a solution containing 0.5% crystal violet and 25% methanol, rinsed with deionized water, dried overnight, and resuspended in […] citrate buffer (0.1 M sodium citrate in 50% ethanol) to assess plating efficiency. Intensity of crystal violet staining, assessed at 570 nm and quantified using a Vmax Kinetic Microplate Reader and Softmax software (Molecular Devices Corp., Menlo Park, Calif.), were directly proportional to cell number. Data were normalized to vehicle-treated cells and were presented as the mean±SE from representative experiments. SMSMs that are effective were determined for various cells lines.
A-673 cell viability […], splicing (IC50) and brain AUC/Plasma AUC of SMSMs were determined. As shown in the tables below SMSMs had high CNS exposure.

| Molecule | IC50 [nM] |
| --- | --- |
| Oc1cc(-c2cn[nH]c2)ccc1-c1ccc(N2CCC23CCNCC3)nn1 [compound 132, 2-(6-(1,7-diazaspiro[3.5]nonan-1-yl)pyridazin-3-yl)-5-(1H-pyrazol-4-yl)phenol] | > 1000 |
| CN(c1ccc(-c2ccc(-c3cn[nH]c3)cc2O)nn1)[C@@H]1C[C@]2(C)CC[C@](C)(C1)N2 [compound 150, 2-(6-(((1R,3r,5S)-1,5-dimethyl-8-azabicyclo[3.2.1]octan-3-yl)(methyl)amino)pyridazin-3-yl)-5-(1H-pyrazol-4-yl)phenol] | > 1000 |
| CN(c1ccc(-c2ccc(-c3cn[nH]c3)cc2O)nn1)[C@H]1C[C@]2(C)COC[C@](C)(C1)N2 [compound 156, 2-(6-(((1R,5S,7r)-1,5-dimethyl-3-oxa-9-azabicyclo[3.3.1]nonan-7-yl)(methyl)amino)pyridazin-3-yl)-5-(1H-pyrazol-4-yl)phenol] | 10 to 100 |
| CN(c1ccc(-c2ccc(-c3cn[nH]c3)cc2O)nn1)[C@@H]1C[C@]2(C)COC[C@](C)(C1)N2 [compound 157, 2-(6-(((1R,5S,7s)-1,5-dimethyl-3-oxa-9-azabicyclo[3.3.1]nonan-7-yl)(methyl)amino)pyridazin-3-yl)-5-(1H-pyrazol-4-yl)phenol] | > 1000 |
| COc1ccc2cc(-c3ccc(N(C)[C@@H]4C[C@H]5CC[C@@H](C4)N5)nn3)c(O)cc2c1 [compound 163, 3-(6-(((1R,3s,5S)-8-azabicyclo[3.2.1]octan-3-yl)(methyl)amino)pyridazin-3-yl)-7-methoxynaphthalen-2-ol] | 101 to 250 |
| CN(c1ccc(-c2cc3ccc(OCF)cc3cc2O)nn1)[C@@H]1C[C@H]2CC[C@@H](C1)N2 [compound 165, 3-(6-(((1R,3s,5S)-8-azabicyclo[3.2.1]octan-3-yl)(methyl)amino)pyridazin-3-yl)-7-(fluoromethoxy)naphthalen-2-ol] | 10 to 100 |
| CN(c1ccc(-c2cc3ccc(OC(F)F)cc3cc2O)nn1)[C@@H]1C[C@H]2CC[C@@H](C1)N2 [compound 166, 3-(6-(((1R,3s,5S)-8-azabicyclo[3.2.1]octan-3-yl)(methyl)amino)pyridazin-3-yl)-7-(difluoromethoxy)naphthalen-2-ol] | 501 to 1000 |
| [2H]C([2H])([2H])n1cc(-c2ccc(-c3ccc(N(C)[C@H]4C[C@]5(C)CC[C@](C)(C4)N5)nn3)c(O)c2)cn1 [compound 171, 2-(6-(((1R,3s,5S)-1,5-dimethyl-8-azabicyclo[3.2.1]octan-3-yl)(methyl)amino)pyridazin-3-yl)-5-(1-(methyl-d3)-1H-pyrazol-4-yl)phenol] | 10 to 100 |
| [2H]C([2H])([2H])Oc1cc(-c2ccc(-c3ccc(N(C)[C@H]4C[C@]5(C)CC[C@](C)(C4)N5)nn3)c(O)c2)ccn1 [compound 172, 2-(6-(((1R,3s,5S)-1,5-dimethyl-8-azabicyclo[3.2.1]octan-3-yl)(methyl)amino)pyridazin-3-yl)-5-(2-(methoxy-d3)pyridin-4-yl)phenol] | < 10 |
| COc1cc(-c2ccc(-c3ccc(N(C)[C@H]4C[C@]5(C)CC[C@](C)(C4)N5)nn3)c(O)c2)ccn1 [compound 173, 2-(6-(((1R,3s,5S)-1,5-dimethyl-8-azabicyclo[3.2.1]octan-3-yl)(methyl)amino)pyridazin-3-yl)-5-(2-methoxypyridin-4-yl)phenol] | < 10 |
| CN(c1ccc(-c2ccc(-c3cnn(CF)c3)cc2O)nn1)[C@H]1C[C@]2(C)CC[C@](C)(C1)N2 [compound 174, 2-(6-(((1R,3s,5S)-1,5-dimethyl-8-azabicyclo[3.2.1]octan-3-yl)(methyl)amino)pyridazin-3-yl)-5-(1-(fluoromethyl)-1H-pyrazol-4-yl)phenol] | < 10 |
| CN(c1ccc(-c2ccc(-n3cc(F)cn3)cc2O)nn1)[C@H]1C[C@]2(C)CC[C@](C)(C1)N2 [compound 175, 2-(6-(((1R,3s,5S)-1,5-dimethyl-8-azabicyclo[3.2.1]octan-3-yl)(methyl)amino)pyridazin-3-yl)-5-(4-fluoro-1H-pyrazol-1-yl)phenol] | 10 to 100 |
| CN(c1ccc(-c2ccc(-n3cnc(F)c3)cc2O)nn1)[C@H]1C[C@]2(C)CC[C@](C)(C1)N2 [compound 176, 2-(6-(((1R,3s,5S)-1,5-dimethyl-8-azabicyclo[3.2.1]octan-3-yl)(methyl)amino)pyridazin-3-yl)-5-(4-fluoro-1H-imidazol-1-yl)phenol] | 10 to 100 |
| Cc1cc(-c2ccc(N(C)[C@H]3C[C@]4(C)CC[C@](C)(C3)N4)nn2)c(O)cc1-c1ccn(C)c(=O)c1 [compound 178, 4-(4-(6-(((1R,3s,5S)-1,5-dimethyl-8-azabicyclo[3.2.1]octan-3-yl)(methyl)amino)pyridazin-3-yl)-5-hydroxy-2-methylphenyl)-1-methylpyridin-2(1H)-one] | 251 to 500 |
| CN(c1ccc(-c2ccc(-c3cnn(C(F)F)c3)cc2O)nn1)[C@H]1C[C@]2(C)CC[C@](C)(C1)N2 [compound 179, 5-(1-(difluoromethyl)-1H-pyrazol-4-yl)-2-(6-(((1R,3s,5S)-1,5-dimethyl-8-azabicyclo[3.2.1]octan-3-yl)(methyl)amino)pyridazin-3-yl)phenol] | 10 to 100 |
| CN(c1ccc(-c2ccc(-c3ncn(C)c(=O)n3)cc2O)nn1)[C@H]1C[C@]2(C)CC[C@](C)(C1)N2 [compound 181, 4-(4-(6-(((1R,3s,5S)-1,5-dimethyl-8-azabicyclo[3.2.1]octan-3-yl)(methyl)amino)pyridazin-3-yl)-3-hydroxyphenyl)-1-methyl-1,3,5-triazin-2(1H)-one] | 251 to 500 |
| CN(c1ccc(-c2ccc(-c3cc[nH]c(=O)c3)cc2O)nn1)[C@H]1C[C@]2(C)CC[C@](C)(C1)N2 [compound 183, 4-(4-(6-(((1R,3s,5S)-1,5-dimethyl-8-azabicyclo[3.2.1]octan-3-yl)(methyl)amino)pyridazin-3-yl)-3-hydroxyphenyl)pyridin-2(1H)-one] | 10 to 100 |
| CN(c1ccc(-c2cc(F)c(-c3cc[nH]c(=O)c3)cc2O)nn1)[C@H]1C[C@]2(C)CC[C@](C)(C1)N2 [compound 184, 4-(4-(6-(((1R,3s,5S)-1,5-dimethyl-8-azabicyclo[3.2.1]octan-3-yl)(methyl)amino)pyridazin-3-yl)-2-fluoro-5-hydroxyphenyl)pyridin-2(1H)-one] | 10 to 100 |
| CN(c1ccc(-c2ccc(-c3ccnc(OC(F)F)c3)cc2O)nn1)[C@H]1C[C@]2(C)CC[C@](C)(C1)N2 [compound 185, 5-(2-(difluoromethoxy)pyridin-4-yl)-2-(6-(((1R,3s,5S)-1,5-dimethyl-8-azabicyclo[3.2.1]octan-3-yl)(methyl)amino)pyridazin-3-yl)phenol] | 501 to 1000 |

These molecules were tested on FOXM1^A2 mRNA and FOXM1^BC mRNA (assay: Splicing assay (FOXM1), qPCR of isoform mRNAs). Conditions: FoxM1 A mRNA increase (exon excluded); read-out: Splice EC50 (nM) FoxM1 A mRNA increase (exon excluded).
Assay type: cell-based
Method: Various cells lines were treated with the SMSMs described herein. RNA was then isolated, cDNA synthesized, qPCR performed and the levels of various mRNA targets of the SMSMs were determined. In some instances, RNA was isolated, cDNA synthesized, qPCR performed and the levels of mRNA isoforms in the various cell samples were determined.
On the day of the experiment, a 96-well plate was seeded with the cell lines of interest. The cells were diluted with full growth media to a concentration of 2.0×10^5 cells/mL and 100 μL of cells were added to each well (20,000 cells per well). The cells were treated with a compound immediately after plating.
The compounds were then added to the cell plate using the HP compound dispenser. In the initial experiment, a top concentration of 10 μM and an 8 point 4-fold dilution scheme was used. The stock compounds were made at a concentration of 5 mM, and the DMSO concentration was set to 0.2%. DMSO was used to normalize all the compound-containing wells and the untreated cells.
The treated cells were incubated at 37° C. in a 5% CO2 incubator for the desired amount of time. Plates were placed in a plastic bag with a wet paper towel to prevent evaporation.
RNA was isolated using the Cells to CT kit (ThermoFisher, AM1728). The cells were washed once with 100 μL cold PBS. 50 μL of lysis buffer was added to each well/tube (49.5 μL lysis buffer+0.5 μL DNase I per well/tube). The lysis reaction was mixed and incubated at room temperature for 5 minutes. 5 μL of stop solution was added directly into each cell lysis reaction and mixed by pipetting up and down 5 times. The plates/tubes were incubated at room temperature for 2 minutes then placed on ice if the cDNA synthesis was to be performed immediately. Otherwise, the plates/tubes were stored at −80° C. cDNA synthesis reactions were then performed. Reverse Transcription (RT) Master mix was prepared according to the table below.
40 μL RT master mix was added to PCR tubes or plate wells. 10 μL of RNA was added to each tube/well. The RT thermal cycler program was then run and tubes or plate wells were incubated at 37° C. for 1 hour, then at 95° C. for 5 minutes to deactivate the enzyme.
The qPCR was performed using a QuantStudio 6 instrument (ThermoFisher) and the following cycling conditions and according to the tables below. All samples and standards were analyzed in triplicate. Cycle 1: 2 minutes at 50° C. Cycle 2: 10 minutes at 95° C. Cycle 3 (repeat 40 times): 15 seconds at 95° C., 1 minute at 60° C.
The determined isoform 2and isoform 1quantities were then be used to determine the isoform 2: […] at the various compound concentrations. The PPIA quantities were used in the normalization to account of cell proliferation effects of the compounds.
The dilution necessary to make the top standard is calculated. A top concentration 200,000,000 copies/μL of the stock plasmid was prepared in TE buffer. A series of 10-fold dilutions, also in TE, were then made. A total of 5 μL of each standard was used in a qPCR well to generate samples containing 109 copies, […], 10^7copies, 10^6 copies, 10^5 copies, 10^4 copies, 10^3 copies, 10^2 copies, 10^1copies, and 0 copies.
An assay to measure the FOXM1^A2 mRNA and FOXM1^BC mRNA, or MADD^WT (isoform 4) mRNA and MADD^Ex16 (isoform 3) mRNA, or MAPTau^4R mRNA and MAPTau^3R mRNA simultaneously in cell wells was performed. The RNA values were measured relative to DMSO control and also included a housekeeping gene, PPIA to ensure data was consistent. The mRNA values were measured after 24 hours of incubation with the SMSM compounds.

| Molecule | EC50 [nM] |
| --- | --- |
| 2-(6-(((1R,3s,5S)-1,5-dimethyl-8-azabicyclo[3.2.1]octan-3-yl)(methyl)amino)pyridazin-3-yl)-5-(4-methyl-1H-imidazol-1-yl)phenol [compound 177] | < 10 |

Same assay, conditions: FoxM1 BC mRNA decrease (exon included); read-out: Splice IC50 (nM) FoxM1 BC mRNA decrease (exon included)

| Molecule | IC50 [nM] |
| --- | --- |
| 2-(6-(((1R,3s,5S)-1,5-dimethyl-8-azabicyclo[3.2.1]octan-3-yl)(methyl)amino)pyridazin-3-yl)-5-(4-methyl-1H-imidazol-1-yl)phenol [compound 177] | < 10 |
